Entries after “also recorded” stand apart in the source; their conditions may differ. Where two headings read alike, the source gives them in different places.
Legend:
[1] = Bidirectional transport across the Caco-2 cell monolayer (LC/MS/MS); details: human; for efflux ratio at 180 min, 25 µg/mL / efflux ratio at 180 min, 10 µM: Caco-2, Efflux ratio P BA/P AB; for efflux ratio at 180 min, 25 µg/mL: in A. cinnamomea extract (25 µg/mL); for efflux ratio at 180 min, 10 µM: as single compounds
[2] = cited from earlier work
[3] = test system: Caco-2 cell monolayer; details: human
[4] = in vitro; details: human; for Papp A→B at 180 min, 25 µg/mL (extract) / Papp B→A at 180 min, 25 µg/mL (extract): Caco-2; for efflux ratio at 180 min, 25 µg/mL: Caco-2, Efflux ratio P BA/P AB
[5] = test system: Caco-2 cell monolayer; assay: Bidirectional transport across the Caco-2 cell monolayer (LC/MS/MS); details: for Efflux ratio P BA/P AB: as single compounds; for Efflux ratio P BA/P AB / permeability through the Caco-2 cell layer: 10 µM; for decrease of PBA in extract compared to the single form: extract versus single compound; for P app P BA: BL to AP; for permeability through the Caco-2 cell layer: pure compounds
[6] = test system: Caco-2 cultures; assay: MTS assay on Caco-2 cultures; assay type: cell-based, human; details: 10 µM
Protocol: The pure compounds 5, 6, 10, 13 and 14 were added into the Caco-2 cultures at a final concentration of 10 µM.

[7] = Solubility (stated in words); details: both in the extract and single forms (13 and 14)
[8] = Leakage marker sodium fluorescein transport, AP to BL, Caco-2 monolayer integrity; assay type: in vitro ADME; details: human
Protocol: The integrity of cell monolayers was also assessed by the transport of the leakage marker sodium fluorescein. On day 21, the Caco-2 monolayers were rinsed twice with pre-warmed HBSS and were then incubated with the same solution at 37 °C for 30 min, on a shaker at 50 rpm. The fluorescein was pre-dissolved in 1 mM NaOH/H2O (1:10, v/v), and then diluted to 1 mM with an appropriate volume of HBSS. The sodium fluorescein and blank HBSS were added to the AP (0.5 mL) and BL side (1.5 mL), respectively. At 30, 60, 90, and 120 min, each 0.3 mL of the solution from BL side was collected, and replaced with an equal volume of HBSS. The sodium fluorescein intensity was determined with a Hitachi F-4500 fluorometer (excitation wavelength 490 nm, emission 525 nm).

[9] = in A. cinnamomea extract (25 µg/mL)

C=C(CC[C@@H](C)[C@H]1CC[C@H]2C3=C(C(=O)C[C@]12C)[C@@]1(C)CCC(=O)[C@@H](C)[C@@H]1C[C@@H]3O)[C@@H](C)C(=O)O [compound 4, 25R-antcin C]
Papp A→B at 180 min, 25 µg/mL (extract) ([1]; Caco-2): 74.1 ± 19 ×10⁻⁶ cm/s
Papp B→A at 180 min, 25 µg/mL (extract) ([1]; Caco-2): 51.3 ± 2.7 ×10⁻⁶ cm/s
efflux ratio at 180 min, 25 µg/mL [1]: 0.69
plasma exposure ([2]; rats, after A. cinnamomea): much lower plasma concentrations

CC(C)=CCC[C@@H](C(=O)O)[C@H]1C[C@H](O)[C@@]2(C)C3=CC[C@H]4C(C)(C)[C@H](O)CC[C@]4(C)C3=CC[C@]12C [compound 7, 3β,15α-dihydroxylanosta-7,9(11),24-triene-21-oic acid]
transport rate ([3]; Caco-2, 180 min, 25 µg/mL): 38.8%
Papp A→B at 180 min, 25 µg/mL (extract) [4]: 37.4 ± 4.3 ×10⁻⁶ cm/s
Papp B→A at 180 min, 25 µg/mL (extract) [4]: 35.7 ± 3.8 ×10⁻⁶ cm/s
efflux ratio at 180 min, 25 µg/mL [4]: 0.96

C=C(CC[C@@H](C)[C@H]1CC[C@H]2C3=C(C(=O)C[C@]12C)[C@@]1(C)CC[C@@H](O)[C@](C)(O)[C@@H]1C[C@@H]3O)[C@@H](C)C(=O)O [compound 2, 25R-antcin K]
transport rate ([3]; Caco-2, 25 µg/mL): 112%
Papp A→B at 180 min, 25 µg/mL (extract) [4]: 57.4 ± 2.7 ×10⁻⁶ cm/s
Papp B→A at 180 min, 25 µg/mL (extract) [4]: 44.8 ± 3 ×10⁻⁶ cm/s
efflux ratio at 180 min, 25 µg/mL [4]: 0.78
plasma exposure ([2]; rat, in vivo): major plasma-exposed components

C=C(CC[C@@H](C)[C@H]1CC[C@H]2C3=C(C(=O)C[C@]12C)[C@@]1(C)CC[C@@H](O)[C@](C)(O)[C@@H]1C[C@@H]3O)[C@H](C)C(=O)O [compound 1, 25S-antcin K]
Papp A→B at 180 min, 25 µg/mL (extract) [4]: 78 ± 8.6 ×10⁻⁶ cm/s
Papp B→A at 180 min, 25 µg/mL (extract) [4]: 53.2 ± 3.1 ×10⁻⁶ cm/s
efflux ratio at 180 min, 25 µg/mL [4]: 0.68
plasma exposure ([2]; rat, in vivo): major plasma-exposed components

C=C(CC[C@@H](C)[C@H]1CC[C@H]2C3=C(C(=O)C[C@]12C)[C@@]1(C)CCC(=O)[C@@H](C)[C@@H]1CC3=O)[C@H](C)C(=O)O [compound 9, 25S-antcin B]
Papp A→B at 180 min, 25 µg/mL (extract) ([1]; Caco-2): 26.5 ± 5.3 ×10⁻⁶ cm/s
Papp B→A at 180 min, 25 µg/mL (extract) ([1]; Caco-2): 27.6 ± 2.7 ×10⁻⁶ cm/s
efflux ratio at 180 min, 25 µg/mL [1]: 1.04
plasma exposure ([2]; rats, after A. cinnamomea): much lower plasma concentrations

CC(C)NCC(O)COc1cccc2ccccc12 (centres unmarked) [propranolol, reference compound]
Papp A→B at 30 min ([1]; Caco-2): 35.1 ± 10.6 ×10⁻⁶ cm/s
Papp A→B at 60 min ([1]; Caco-2): 37.6 ± 4.5 ×10⁻⁶ cm/s
Papp A→B at 90 min ([1]; Caco-2): 34.3 ± 4.6 ×10⁻⁶ cm/s
Papp A→B at 120 min ([1]; Caco-2): 38.1 ± 3.4 ×10⁻⁶ cm/s
PAB value of marker compound ([5]; marker compound, AP to BL (Table S5)): 3.81 ± 0.34 × 10^−5 cm/s

C=C(CC[C@@H](C)[C@H]1CC[C@H]2C3=C(C(=O)[C@H](O)[C@]12C)[C@@]1(C)CC[C@@H](O)[C@@H](C)[C@@H]1CC3=O)[C@@H](C)C(=O)O [compound 5, 25R-antcin H]
Papp A→B at 180 min, 10 µM ([1]; Caco-2): 37.2 ± 4.4 ×10⁻⁶ cm/s
Papp A→B at 180 min, 25 µg/mL (extract) ([1]; Caco-2): 39.5 ± 6.4 ×10⁻⁶ cm/s
Papp B→A at 180 min, 10 µM ([1]; Caco-2): 84.1 ± 13.5 ×10⁻⁶ cm/s
Papp B→A at 180 min, 25 µg/mL (extract) ([1]; Caco-2): 34.7 ± 3.6 ×10⁻⁶ cm/s
efflux ratio at 180 min, 10 µM [1]: > 2
efflux ratio at 180 min, 25 µg/mL [1]: 0.88
Efflux ratio P BA/P AB [5]: 2.26
decrease of PBA in extract compared to the single form [5]: 50–60%
P app P BA [5, 9]: 3.0–3.8 ×10^−5 cm/s
permeability through the Caco-2 cell layer [5]: could readily pass through; also recorded: high permeability
plasma exposure ([2]; rats, after A. cinnamomea): major plasma-exposed components
toxicity to the cells (MTS assay) [6]: non-toxic

C=C(CC[C@@H](C)[C@H]1CC[C@H]2C3=C(C(=O)C[C@]12C)[C@@]1(C)CCC(=O)[C@@H](C)[C@@H]1CC3=O)[C@@H](C)C(=O)O [compound 10, 25R-antcin B]
Papp A→B at 180 min, 10 µM ([1]; Caco-2): 28.3 ± 4.3 ×10⁻⁶ cm/s
Papp A→B at 180 min, 25 µg/mL (extract) ([1]; Caco-2): 41.1 ± 9.2 ×10⁻⁶ cm/s
Papp B→A at 180 min, 10 µM ([1]; Caco-2): 58.5 ± 5.8 ×10⁻⁶ cm/s
Papp B→A at 180 min, 25 µg/mL (extract) ([1]; Caco-2): 38.6 ± 3.2 ×10⁻⁶ cm/s
efflux ratio at 180 min, 10 µM [1]: > 2
efflux ratio at 180 min, 25 µg/mL [1]: 0.94
Efflux ratio P BA/P AB [5]: 2.07
decrease of PBA in extract compared to the single form [5]: 50–60%
P app P BA [5, 9]: 3.0–3.8 ×10^−5 cm/s
permeability through the Caco-2 cell layer [5]: could readily pass through; also recorded: high permeability
metabolites detected in the AP side ([5]; single compound 10 µM, 120 min (Fig. S2)): two hydrogenated metabolites
plasma exposure ([2]; rats, after A. cinnamomea): much lower plasma concentrations
toxicity to the cells (MTS assay) [6]: non-toxic

C=C(CC[C@@H](C)[C@H]1CC[C@H]2C3=C(C(=O)C[C@]12C)[C@@]1(C)CCC(=O)[C@@H](C)[C@@H]1C[C@@H]3O)[C@H](C)C(=O)O [compound 3, 25S-antcin C]
Papp A→B at 180 min, 25 µg/mL (extract) ([1]; Caco-2): 68.2 ± 5.9 ×10⁻⁶ cm/s
Papp B→A at 180 min, 25 µg/mL (extract) ([1]; Caco-2): 49.9 ± 2.9 ×10⁻⁶ cm/s
efflux ratio at 180 min, 25 µg/mL [1]: 0.73
plasma exposure ([2]; rats, after A. cinnamomea): much lower plasma concentrations

C=C(CC[C@@H](C(=O)O)[C@H]1C[C@H](O)[C@@]2(C)C3=CC[C@H]4C(C)(C)[C@@H](O)CC[C@]4(C)C3=CC[C@]12C)C(C)C [compound 8, dehydrosulphurenic acid]
solubility [7]: very low
permeability ([5]; both in the extract and single forms (13 and 14)): very low
permeability ([5]; in A. cinnamomea extract): poor permeability

C=C(CC[C@@H](C)[C@H]1CC[C@H]2C3=C(C(=O)C[C@]12C)[C@@]1(C)CCC(=O)[C@@H](C)[C@@H]1CC3)C(C)C(=O)O (mixture of isomers) [compound 11, (R/S)-antcin A]
Papp A→B at 180 min, 25 µg/mL (extract) [4]: 79.2 ± 4.2 ×10⁻⁶ cm/s
Papp B→A at 180 min, 25 µg/mL (extract) [4]: 47.9 ± 2.3 ×10⁻⁶ cm/s
efflux ratio at 180 min, 25 µg/mL [4]: 0.6

C=C(CC[C@@H](C)[C@H]1CC[C@H]2C3=C(C(=O)[C@H](O)[C@]12C)[C@@]1(C)CC[C@@H](O)[C@@H](C)[C@@H]1CC3=O)[C@H](C)C(=O)O [compound 6, 25S-antcin H]
Papp A→B at 180 min, 10 µM ([1]; Caco-2): 31.4 ± 5.6 ×10⁻⁶ cm/s
Papp B→A at 180 min, 10 µM ([1]; Caco-2): 92 ± 13.4 ×10⁻⁶ cm/s
Papp B→A at 180 min, 25 µg/mL (extract) ([1]; Caco-2): 30.5 ± 3.8 ×10⁻⁶ cm/s
efflux ratio at 180 min, 10 µM [1]: > 2
efflux ratio at 180 min, 25 µg/mL [1]: 0.99
decrease of PBA in extract compared to the single form [5]: 50–60%
P app P AB ([5]; in A. cinnamomea extract (25 µg/mL), AP to BL): 3.18 ± 0.34 ×10^−5 cm/s
P app P BA [5, 9]: 3.0–3.8 ×10^−5 cm/s
permeability through the Caco-2 cell layer [5]: could readily pass through; also recorded: high permeability
plasma exposure ([2]; rats, after A. cinnamomea): major plasma-exposed components
toxicity to the cells (MTS assay) [6]: non-toxic

O=C1OC2(c3ccc(O)cc3Oc3cc(O)ccc32)c2ccccc21 [sodium fluorescein]
Papp A→B at 1 mM ([8]; 1 mM, day 21 monolayer, read-out: Papp value AP to BL side): < 1 ×10⁻⁶ cm/s
Papp A→B at 30 min, 1 mM ([8]; 30 min): 0.798 ± 0.199 ×10⁻⁶ cm/s
Papp A→B at 60 min, 1 mM ([8]; 60 min): 0.771 ± 0.144 ×10⁻⁶ cm/s
Papp A→B at 90 min, 1 mM ([8]; 90 min): 0.765 ± 0.14 ×10⁻⁶ cm/s
Papp A→B at 120 min, 1 mM ([8]; 120 min): 0.708 ± 0.298 ×10⁻⁶ cm/s
